Source: patent US6774133B2, “Substituted spiroheterocyclic 1H-3-aryl-pyrrolidine-2,4-dione derivatives, processes for their preparation, and their use as pesticides” (Bayer Aktiengesellschaft, priority 1993, dated 2004)

System: green peach apid (Myzus persicae)
Test: Myzus test (cabbage leaves dipped)
Type: in vivo
Conditions: after 6 days; active compound concentration 0.1%
Description: Solvent: 7 parts by weight of dimethylformamide
Emulsifier: 1 part by weight of alkylaryl polyglycol ether
To produce a suitable preparation of active compound, 1 part by weight of active compound is mixed with the stated amount of solvent and the stated amount of emulsifier, and the concentrate is diluted with water to the desired concentration.
Cabbage leaves (Brassica oleracea) which are severely infested with the green peach apid (Myzus persicae) are treated by being dipped into the preparation of active compound of the desired concentration.
After the specified periods of time, the destruction in % is determined. 100% means that all the aphids have been killed; 0% means that none of the aphids have been killed.

SMILES | destruction rate
Cc1cc(C)c(C2=C(O)C3(CCCCC3)NC2=O)c(C)c1 [(A)] | no destruction
CC(C)C(=O)OC1=C(c2ccc(Cl)cc2Cl)C(=O)NC12CCCCC2 [(B)] | 20%
